Experimental data as given in patent publication US10376510B2, “2,4- or 4,6-diaminopyrimidine compounds as IDH2 mutants inhibitors for the treatment of cancer” (AGIOS PHARMACEUTICALS, INC., priority 2013, dated 2019).
pIC50: −log10 of the molar value.

Legend:
[1] = tested on: U87MG pLVX-IDH2 R140Q-neo cells; test: U87MG pLVX-IDH2 R140Q-neo cell based assay (2-HG in media by LC-MS); set-up: key to Cell R140Q: values indicated as “A” represent an IC50 of less than 50 nM; values indicated as “B” represent an IC50 of between 50 nM and 100 nM; values indicated as “C” represent an IC50 of greater than 100 nM; values indicated as “D” represent that the compound was either inactive or not tested in that particular assay; conditions: 2-HG at 48 hours, class symbols; for pIC50: Homo sapiens, U-87 MG
Method: U87MG pLVX-IDH2 R140Q-neo Cell Based Assay.
U87MG pLVX-IDH2 R140Q-neo cells are grown in T125 flasks in DMEM containing 10% FBS, 1× penicillin/streptomycin and 500 μg/mL G418. They are harvested by trypsin and seeded into 96 well white bottom plates at a density of 5000 cell/well in 100 μl/well in DMEM with 10% FBS. No cells are plated in columns 1 and 12. Cells are incubated overnight at 37° C. in 5% CO2. The next day compounds are made up at 2x concentration and 100 ul are added to each cell well. The final concentration of DMSO is 0.2% and the DMSO control wells are plated in row G. The plates are then placed in the incubator for 48 hours. At 48 hours, 100 ul of media is removed from each well and analyzed by LC-MS for 2-HG concentrations. The cell plate is placed back in the incubator for another 24 hours. At 72 hours post compound addition, 10 mL/plate of Promega Cell Titer Glo reagent is thawed and mixed. The cell plate is removed from the incubator and allowed to equilibrate to room temperature. Then 100 ul of reagent is added to each well of media. The cell plate is then placed on an orbital shaker for 10 minutes and then allowed to sit at room temperature for 20 minutes. The plate is then read for luminescence with an integration time of 500 ms to determine compound effects on growth inhibition.

[2] = molecular target: T1, IDH2 R140Q (Homo sapiens, UniProt P48735, R140Q); test: IDH2 R140Q enzymatic assay (NADPH cofactor depletion, diaphorase/resazurin readout); type: biochemical; set-up: key to Enz R140Q: values indicated as “A” represent an IC50 of less than 50 nM; values indicated as “B” represent an IC50 of between 50 nM and 100 nM; values indicated as “C” represent an IC50 of greater than 100 nM; values indicated as “D” represent that the compound was either inactive or not tested in that particular assay; conditions: IDH2 R140Q enzyme, 16 hours preincubation, class symbols; for pIC50: read-out: Enz R140Q
T1 sequence (P48735 40-452 R140Q): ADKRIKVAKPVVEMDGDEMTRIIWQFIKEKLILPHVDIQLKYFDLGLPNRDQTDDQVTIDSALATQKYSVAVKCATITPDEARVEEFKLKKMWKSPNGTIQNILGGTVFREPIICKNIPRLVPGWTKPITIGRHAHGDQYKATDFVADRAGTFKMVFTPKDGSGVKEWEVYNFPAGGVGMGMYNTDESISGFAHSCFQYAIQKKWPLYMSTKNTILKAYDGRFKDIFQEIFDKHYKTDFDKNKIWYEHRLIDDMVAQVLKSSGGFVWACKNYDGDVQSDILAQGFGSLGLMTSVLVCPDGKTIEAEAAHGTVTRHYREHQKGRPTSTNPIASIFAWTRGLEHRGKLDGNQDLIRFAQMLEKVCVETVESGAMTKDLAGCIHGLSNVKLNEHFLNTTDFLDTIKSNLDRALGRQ
Method: Compounds are assayed for IDH2 R172K inhibitory activity through a cofactor depletion assay. […] The reaction is terminated by the addition of a second enzyme, diaphorase, and a corresponding substrate, resazurin. Diaphorase reduces resazurin to the highly fluorescent resorufin with the concomitant oxidation of NADPH to NADP, both halting the IDH2 reaction by depleting the available cofactor pool and facilitating quantitation of the amount of cofactor remaining after a specific time period through quantitative production of an easily detected fluorophore.
Specifically, into each of 12 wells of a 384-well plate, 1 μl of 100× compound dilution series is placed, followed by the addition of 40 μl of buffer (50 mM potassium phosphate (K2HPO4), pH 7.5; 150 mM NaCl; 10 mM MgCl2, 10% glycerol, 0.05% bovine serum albumin, 2 mM beta-mercaptoethanol) containing 1.25 μg/ml IDH2 R172K. The test compound is then incubated for 16 hours at room temperature with the enzyme; before starting the IDH2 reaction with the addition of 10 μl of substrate mix containing 50 μM NADPH and 6.3 mM α-KG in the buffer described above. After a further one hour of incubation at room temperature, the reaction is halted and the remaining NADPH measured through conversion of resazurin to resorufin by the addition of 25 μl Stop Mix (36 μg/ml diaphorase enzyme and 60 μM resazurin; in buffer). After one minute of incubation the plate is read on a plate reader at Ex544/Em590.
For determination of the inhibitory potency of compounds against IDH2 R140Q in an assay format similar to the above, a similar procedure is performed, except that the final testing concentration is 0.25 μg/ml IDH2 R140Q protein, 4 μM NADPH and 1.6 mM α-KG.
For determination of the inhibitory potency of compounds against IDH2 R140Q in a high throughput screening format, a similar procedure is performed, except that 0.25 μg/ml IDH2 R140Q protein was utilized in the preincubation step, and the reaction is started with the addition of 4 μM NADPH and 8 μM α-KG.

| SMILES | pIC50 [1] | pIC50 [2] | Enz R140Q [2] | Cell R140Q [1] |
| --- | --- | --- | --- | --- |
| CC(C)Nc1cc(Nc2ccccc2)nc(-c2ccccc2)n1 [Compound 700] | < 7.00 | 7.00 to 7.30 |  |  |
| CC(C)CC(=O)Nc1cc(Nc2ccccc2)nc(-c2ccccc2)n1 [Compound 701] | < 7.00 |  | D |  |
| CC(C)C(=O)Nc1cc(Nc2ccccc2)nc(-c2ccccc2)n1 [Compound 702] | < 7.00 | > 7.30 |  |  |
| CC(C)OC(=O)Nc1cc(Nc2ccccc2)nc(-c2ccccc2)n1 [Compound 703] | < 7.00 |  | D |  |
| CC(C)Nc1cc(Nc2ccccn2)nc(-c2cccc(C(F)(F)F)n2)n1 [Compound 704] | > 7.30 | > 7.30 |  |  |
| CC(C)Nc1cc(Nc2cc(Cl)ccn2)nc(-c2cccc(C(F)(F)F)n2)n1 [Compound 705] | > 7.30 | > 7.30 |  |  |
| CC(C)Nc1cc(Nc2ccnc(C(F)(F)F)c2)nc(-c2cccc(C(F)(F)F)n2)n1 [Compound 706] | > 7.30 | > 7.30 |  |  |
| CC(C)(O)CNc1cc(Nc2ccccn2)nc(-c2cccc(C(F)(F)F)n2)n1 [Compound 707] | < 7.00 | < 7.00 |  |  |
| CC(C)Nc1cc(Nc2ccccc2)nc(-c2cccc(C(F)(F)F)n2)n1 [Compound 708] | 7.00 to 7.30 | > 7.30 |  |  |
| CC(C)(O)CNc1cc(Nc2ccnc(C(F)(F)F)c2)nc(-c2cccc(C(F)(F)F)n2)n1 [Compound 709] | < 7.00 | < 7.00 |  |  |
| CC(C)Nc1cc(Nc2cccc(Cl)n2)nc(-c2cccc(C(F)(F)F)n2)n1 [Compound 710] | > 7.30 | > 7.30 |  |  |
| CC(C)Nc1cc(Nc2cc(C(F)(F)F)ccn2)nc(-c2cccc(C(F)(F)F)n2)n1 [Compound 711] | > 7.30 | > 7.30 |  |  |
| CC(C)Nc1cc(Nc2cc(C#N)ccn2)nc(-c2cccc(C(F)(F)F)n2)n1 [Compound 712] | > 7.30 | > 7.30 |  |  |
| CC(C)Nc1cc(Nc2cc(C(C)(F)F)ccn2)nc(-c2cccc(C(F)(F)F)n2)n1 [Compound 713] | > 7.30 | > 7.30 |  |  |
| CC(C)Nc1cc(Nc2cc(C(F)F)ccn2)nc(-c2cccc(C(F)(F)F)n2)n1 [Compound 714] | > 7.30 | > 7.30 |  |  |
| FC(F)(F)c1ccnc(Nc2cc(NCC3CC3)nc(-c3cccc(C(F)(F)F)n3)n2)c1 [Compound 715] | > 7.30 | > 7.30 |  |  |
| CC(C)(C)Nc1cc(Nc2cc(C(F)(F)F)ccn2)nc(-c2cccc(C(F)(F)F)n2)n1 [Compound 716] | > 7.30 | 7.00 to 7.30 |  |  |
| CC(C)Nc1cc(Nc2cc(C(F)(F)F)ncn2)nc(-c2cccc(C(F)(F)F)n2)n1 [Compound 717] | > 7.30 | > 7.30 |  |  |
| CC(C)(O)CNc1cc(Nc2cc(C(F)(F)F)ccn2)nc(-c2cccc(C(F)(F)F)n2)n1 [Compound 718] | > 7.30 | > 7.30 |  |  |

| SMILES | pIC50 [1] | pIC50 [2] | Enz R140Q [2] | Cell R140Q [1] |
| --- | --- | --- | --- | --- |
| N#CC1(c2ccnc(Nc3cc(NCC4CC4)nc(-c4cccc(C(F)(F)F)n4)n3)c2)CC1 [Compound 719] | > 7.30 | > 7.30 |  |  |
| CC(C)Nc1cc(Nc2cc(C3(C#N)CC3)ccn2)nc(-c2cccc(C(F)(F)F)n2)n1 [Compound 720] | > 7.30 | > 7.30 |  |  |
| CC(C)(C)Nc1cc(Nc2cc(C3(C#N)CC3)ccn2)nc(-c2cccc(C(F)(F)F)n2)n1 [Compound 721] | > 7.30 | 7.00 to 7.30 |  |  |
| Nc1cc(Nc2cc(C(F)(F)F)ccn2)nc(-c2cccc(C(F)(F)F)n2)n1 [Compound 722] |  | < 7.00 |  | D |
| CC(C)(C)Nc1cc(Nc2cc(C(F)(F)F)ncn2)nc(-c2cccc(C(F)(F)F)n2)n1 [Compound 723] |  | 7.00 to 7.30 |  | D |
| COc1ccc(CNc2cc(Nc3cc(C(F)(F)F)ncn3)nc(-c3cccc(C(F)(F)F)n3)n2)cc1 [Compound 724] |  | > 7.30 |  | D |
| CC(C)(CO)Nc1cc(Nc2cc(C(F)(F)F)ncn2)nc(-c2cccc(C(F)(F)F)n2)n1 [Compound 725] |  | 7.00 to 7.30 |  | D |
| Nc1cc(Nc2cc(C(F)(F)F)ncn2)nc(-c2cccc(C(F)(F)F)n2)n1 [Compound 726] |  | < 7.00 |  | D |
| COc1ccc(CNc2cc(Nc3ccnc(C(F)(F)F)c3)nc(-c3cccc(C(F)(F)F)n3)n2)cc1 [Compound 727] |  | 7.00 to 7.30 |  | D |
| Nc1cc(Nc2ccnc(C(F)(F)F)c2)nc(-c2cccc(C(F)(F)F)n2)n1 [Compound 728] |  |  | D | D |
| CC(C)Nc1nc(Nc2ccccc2)cc(-c2ccccc2)n1 [Compound 729] |  |  | D | D |
| CC(C)Nc1cc(-c2ccccc2)nc(Nc2ccccc2)n1 [Compound 730] | 7.00 to 7.30 | 7.00 to 7.30 |  |  |
| O=C(Cc1ccccc1)Nc1nc(Nc2ccccc2)cc(-c2ccccc2)n1 [Compound 734] | < 7.00 |  | D |  |
| CC(C)CC(=O)Nc1cc(-c2ccccc2)nc(Nc2ccccc2)n1 [Compound 735] | < 7.00 | < 7.00 |  |  |
| CC(C)C(=O)Nc1cc(-c2ccccc2)nc(Nc2ccccc2)n1 [Compound 736] | < 7.00 |  | D |  |
| CC(C)OC(=O)Nc1cc(-c2ccccc2)nc(Nc2ccccc2)n1 [Compound 737] |  |  | D | D |
| CC(C)Nc1nc(Nc2ccnc(C(F)(F)F)c2)cc(-c2cccc(C(F)(F)F)n2)n1 [Compound 738] | 7.00 to 7.30 | > 7.30 |  |  |
| CC(C)Nc1cc(-c2cccc(C(F)(F)F)n2)nc(Nc2ccnc(C(F)(F)F)c2)n1 [Compound 739] | < 7.00 | > 7.30 |  |  |
